Measurements taken from ChEMBL document CHEMBL1201862, “PubChem BioAssay data set” (2004).
Where a name gives a salt, the structure may show the parent alone.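 Results reflect a 48-hour exposure of cells in 96-well plates to compound at five concentrations. The concentration for 50% growth inhibition is given as GI50.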 The source made the active and inactive calls. No stated cut-off is given here; in the data, active = GI50 up to about 1.1 µM and inactive = higher.

Key:
Assay in all cases: NCI tumour cell line growth inhibition, 48 h
786-0 = test system: 786-0
A498 = test system: A498
A549 = test system: A549
ACHN = test system: ACHN
BT-549 = test system: BT-549
CAKI-1 = test system: CAKI-1
CCRF-CEM = test system: CCRF-CEM
COLO 205 = test system: COLO 205
DU-145 = test system: DU-145
EKVX = test system: EKVX
HCC 2998 = test system: HCC 2998
HCT-116 = test system: HCT-116
HCT-15 = test system: HCT-15
HL-60 = test system: HL-60
HOP-62 = test system: HOP-62
HOP-92 = test system: HOP-92
HT-29 = test system: HT-29
Hs-578T = test system: Hs-578T
IGROV-1 = test system: IGROV-1
K562 = test system: K562
KM12 = test system: KM12
LOX IMVI = test system: LOX IMVI
M14 = test system: M14
MCF7 = test system: MCF7
MDA-MB-231 = test system: MDA-MB-231
MDA-MB-435 = test system: MDA-MB-435
MDA-N = test system: MDA-N
MOLT-4 = test system: MOLT-4
Malme-3M = test system: Malme-3M
NCI-H226 = test system: NCI-H226
NCI-H460 = test system: NCI-H460
NCI-H522 = test system: NCI-H522
NCI/ADR-RES = test system: NCI/ADR-RES
OVCAR-3 = test system: OVCAR-3
OVCAR-4 = test system: OVCAR-4
OVCAR-5 = test system: OVCAR-5
OVCAR-8 = test system: OVCAR-8
PC-3 = test system: PC-3
RPMI-8226 = test system: RPMI-8226
RXF 393 = test system: RXF 393
SF-268 = test system: SF-268
SF-295 = test system: SF-295
SF-539 = test system: SF-539
SK-MEL-28 = test system: SK-MEL-28
SK-MEL-2 = test system: SK-MEL-2
SK-MEL-5 = test system: SK-MEL-5
SK-OV-3 = test system: SK-OV-3
SN12C = test system: SN12C
SNB-19 = test system: SNB-19
SNB-75 = test system: SNB-75
SR = test system: SR
SW-620 = test system: SW-620
T47D = test system: T47D
TK-10 = test system: TK-10
U-251 = test system: U-251
UACC-257 = test system: UACC-257
UACC-62 = test system: UACC-62
UO-31 = test system: UO-31

Compound: CC(C)C[C@H]1C(=O)N2CCC[C@H]2[C@]2(O)O[C@](NC(=O)[C@@H]3C=C4c5cccc6[nH]c(Br)c(c56)C[C@H]4N(C)C3)(C(C)C)C(=O)N12 [BROMOCRIPTINE MESYLATE]
- GI50 (786-0): 53.2 µM (inactive)
- GI50 (A498): > 100 µM (inactive)
- GI50 (A549): 6.98 µM (inactive)
- GI50 (ACHN): 13 µM (inactive)
- GI50 (BT-549): > 100 µM (inactive)
- GI50 (CAKI-1): 46.1 µM (inactive)
- GI50 (CCRF-CEM): 4.56 µM (inactive)
- GI50 (COLO 205): 5.27 µM (inactive)
- GI50 (DU-145): > 100 µM (inactive)
- GI50 (EKVX): 4.74 µM (inactive)
- GI50 (HCC 2998): 32.8 µM (inactive)
- GI50 (HCT-116): 5.33 µM (inactive)
- GI50 (HCT-15): 8.67 µM
- GI50 (HL-60): 2.51 µM (inactive)
- GI50 (HOP-62): > 100 µM (inactive)
- GI50 (HOP-92): > 100 µM (inactive)
- GI50 (HT-29): 13.6 µM (inactive)
- GI50 (Hs-578T): 25.2 µM (inactive)
- GI50 (IGROV-1): 67.5 µM (inactive)
- GI50 (K562): 4.65 µM (inactive)
- GI50 (KM12): 9.82 µM (inactive)
- GI50 (LOX IMVI): > 100 µM (inactive)
- GI50 (M14): 61.1 µM (inactive)
- GI50 (MCF7): 8.87 µM (inactive)
- GI50 (MDA-MB-231): > 100 µM (inactive)
- GI50 (MDA-MB-435): 38.2 µM (inactive)
- GI50 (MDA-N): 69.8 µM (inactive)
- GI50 (MOLT-4): 4.34 µM (inactive)
- GI50 (Malme-3M): 36.5 µM (inactive)
- GI50 (NCI-H226): 51.2 µM (inactive)
- GI50 (NCI-H460): 10.8 µM (inactive)
- GI50 (NCI-H522): 34 µM (inactive)
- GI50 (NCI/ADR-RES): 9.35 µM (inactive)
- GI50 (OVCAR-3): 8.87 µM (inactive)
- GI50 (OVCAR-4): > 100 µM (inactive)
- GI50 (OVCAR-5): > 100 µM (inactive)
- GI50 (OVCAR-8): > 100 µM (inactive)
- GI50 (PC-3): 4.17 µM (inactive)
- GI50 (RPMI-8226): 3.8 µM (inactive)
- GI50 (RXF 393): 24.7 µM (inactive)
- GI50 (SF-268): 59.6 µM (inactive)
- GI50 (SF-295): 39.8 µM (inactive)
- GI50 (SF-539): > 100 µM (inactive)
- GI50 (SK-MEL-28): > 100 µM (inactive)
- GI50 (SK-MEL-2): > 100 µM (inactive)
- GI50 (SK-MEL-5): 21.7 µM (inactive)
- GI50 (SK-OV-3): > 100 µM (inactive)
- GI50 (SN12C): 56.1 µM (inactive)
- GI50 (SNB-19): > 100 µM (inactive)
- GI50 (SNB-75): 40.9 µM (inactive)
- GI50 (SR): 6.11 µM (inactive)
- GI50 (SW-620): 72.6 µM (inactive)
- GI50 (T47D): 28.2 µM (inactive)
- GI50 (TK-10): 15.1 µM (inactive)
- GI50 (U-251): 35.8 µM (inactive)
- GI50 (UACC-257): 49.5 µM (inactive)
- GI50 (UACC-62): > 100 µM (inactive)
- GI50 (UO-31): 4.61 µM (inactive)
